In patent US20220380314A1, “SUBSTITUTED, SATURATED AND UNSATURATED N-HETEROCYCLIC CARBOXAMIDES AND RELATED COMPOUNDS FOR THEIR USE IN THE TREATMENT OF MEDICAL DISORDERS” (Bial - R&D Investments, S.A., priority 2019, published 2022):
Converted amounts (≈) assume the structure as drawn.

Assays:
acid ceramidase (hACR) = molecular target: T1, acid ceramidase (hACR) (Homo sapiens, UniProt Q13510); assay: Acid ceramidase inhibition, biochemical fluorescent assay with cell lysates overexpressing acid ceramidase, substrate Rbm14-12; conditions: cell lysates overexpressing acid ceramidase; 1 hr preincubation at RT; pH 4.5; substrate Rbm14-12 6.3 μM; read-out: hACR IC50
T1 construct: expressed in transfected cells; cell lysate used
T1 sequence (Q13510 143-395 limits assumed): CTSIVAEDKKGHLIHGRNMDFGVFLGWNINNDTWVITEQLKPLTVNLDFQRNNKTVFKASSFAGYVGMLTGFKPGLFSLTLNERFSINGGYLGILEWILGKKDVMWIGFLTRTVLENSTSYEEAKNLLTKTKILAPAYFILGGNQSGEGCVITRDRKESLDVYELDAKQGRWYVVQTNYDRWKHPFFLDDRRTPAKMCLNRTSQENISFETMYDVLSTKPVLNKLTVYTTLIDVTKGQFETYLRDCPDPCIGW
T1 sequence (Q13510 22-142 limits assumed): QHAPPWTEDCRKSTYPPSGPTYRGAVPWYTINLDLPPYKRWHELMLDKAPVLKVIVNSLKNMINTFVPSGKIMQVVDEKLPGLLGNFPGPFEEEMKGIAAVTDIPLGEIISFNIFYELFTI
How it was run: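 Enzyme source was lysate (10 µg protein) from cells overexpressing acid ceramidase, preincubated 1 hr at RT with compound dose series in 25 mM NaAc, 100 mM NaCl, pH 4.5. Rbm14-12 (6.3 μM final) reacted 1 hr at RT; stop buffer (methanol, NaIO4, glycine, pH 10.6) 1 hr, fluorescence ex360/em446; IC50 from four-parameter fit.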

[1] = Compound solubility in water; type: physicochemical

IC50 (acid ceramidase (hACR)) [µM] | solubility [1] [µM] | Structure (SMILES)
> 1 | 23.6 (≈ 6.5 µg/mL) | CN1CCN(C(=O)NCCc2ccccc2)C(C)(C)C1 [Example 34, 2,2,4-Trimethyl-N-phenethylpiperazine-1-carboxamide]
> 1 | 35.8 (≈ 11.1 µg/mL) | CCCCNC(=O)N1CCN(C2CCCN(C)C2)CC1(C)C (stereo not drawn) [Example 38]
> 1 | 34.8 (≈ 11.3 µg/mL) | CCCCNC(=O)N1CCC(OC2CCN(C)CC2)CC1(C)C (stereo not drawn) [Example 39, N-Butyl-2,2-dimethyl-4-((1-methylpiperidin-4-yl)oxy)piperidine-1-carboxamide]
0.2 to 1 | 35.3 (≈ 13.3 µg/mL) | CN1CC(c2cccc3c2CCC(C)(C)N3C(=O)NCCc2ccccc2)C1 [Example 49]
0.2 to 1 | 0.9 (≈ 0.328 µg/mL) | CC1(C)CCc2c(C3COC3)cccc2N1C(=O)NCCc1ccccc1 [Example 51]
> 1 | 25.6 (≈ 6.31 µg/mL) | CC1(C)CCCN1C(=O)NCCc1ccccc1 [Example 54, 2,2-Dimethyl-N-phenethylpyrrolidine-1-carboxamide]
< 0.2 | 25.7 (≈ 7.98 µg/mL) | CC1(C)CC(F)(F)CCN1C(=O)NCCCc1ccccc1 [Example 61, 4,4-Difluoro-2,2-dimethyl-N-(3-phenylpropyl)piperidine-1-carboxamide]
0.2 to 1 | 40.2 (≈ 14.6 µg/mL) | CN1CC(c2ccc3c(c2)N(C(=O)NCc2ccccc2)C(C)(C)CC3)C1 [Example 65, N-benzyl-2,2-dimethyl-7-(1-methylazetidin-3-yl)-3,4-dihydroquinoline-1(2H)-carboxamide]
0.2 to 1 | 38.5 (≈ 14 µg/mL) | CN1CC(c2cccc3c2CCC(C)(C)N3C(=O)NCc2ccccc2)C1 [Example 66, N-Benzyl-2,2-dimethyl-5-(1-methylazetidin-3-yl)-3,4-dihydroquinoline-1(2H)-carboxamide]
> 1 | 8.3 (≈ 2.44 µg/mL) | CC1(C)Cc2ccccc2N1C(=O)NCCc1ccccc1 [Example 67, 2,2-Dimethyl-N-phenethylindoline-1-carboxamide]
< 0.2 | 8.2 (≈ 2.78 µg/mL) | COc1cccc2c1N(C(=O)NCCc1ccccc1)C(C)(C)CC2 [Example 68, 8-Methoxy-2,2-dimethyl-N-phenethyl-3,4-dihydroquinoline-1(2H)-carboxamide]
> 1 | 35.5 (≈ 15.4 µg/mL) | CN1CC(N2CC(c3ccc4c(c3)N(C(=O)NCCc3ccccc3)C(C)(C)CC4)C2)C1 [Example 69, 2,2-Dimethyl-7-(1′-methyl-[1,3′-biazetidin]-3-yl)-N-phenethyl-3,4-dihydroquinoline-1(2H)-carboxamide]
0.2 to 1 | 5.9 (≈ 1.96 µg/mL) | CN(C(=O)NCCCC1(C(F)(F)F)CC1)C12CCC(CC1)CC2 [Example 71, 1-(Bicyclo[2.2.2]octan-1-yl)-1-methyl-3-(3-(1-(trifluoromethyl)cyclopropyl)propyl)urea]

Continued, molecule first:

Structure (SMILES) | IC50 (acid ceramidase (hACR)) [µM] | solubility [1] [µM]
CC1(C)CCc2cccc(F)c2N1C(=O)NCCc1ccccc1 [Example 35, 8-Fluoro-2,2-dimethyl-N-phenethyl-3,4-dihydroquinoline-1(2H)-carboxamide] | 0.2 to 1 | 6.02 (≈ 1.97 µg/mL)
CCCCNC(=O)N1CCN(C)CC1(C)C [Example 37, N-Butyl-2,2,4-trimethylpiperazine-1-carboxamide] | > 1 | 19.1 (≈ 4.34 µg/mL)
CC1(C)CCCCN1C(=O)NCCCc1ccccc1 [Example 40, 2,2-Dimethyl-N-(3-phenylpropyl)piperidine-1-carboxamide] | < 0.2 | 23.4 (≈ 6.42 µg/mL)
CC(C)CCNC(=O)N1CCC(Oc2ccccc2)CC1(C)C (stereo not drawn) [Example 41, N-iso-Pentyl-2,2-dimethyl-4-phenoxypiperidine-1-carboxamide] | 0.2 to 1 | 3.7 (≈ 1.18 µg/mL)
CC(C)CCNC(=O)N1CCN(c2ccccc2)CC1(C)C [Example 42, N-iso-Pentyl-2,2-dimethyl-4-phenylpiperazine-1-carboxamide] | > 1 | 7 (≈ 2.12 µg/mL)
CC1(C)CC2(CCCCO2)CCN1C(=O)NCCCCC1CC1 (stereo not drawn) [Example 43, N-(4-Cyclopropylbutyl)-8,8-dimethyl-1-oxa-9-azaspiro[5.5]undecane-9-carboxamide] | 0.2 to 1 | 16.5 (≈ 5.32 µg/mL)
C=CCCCCNC(=O)N1CCC2(CCCCO2)CC1(C)C (stereo not drawn) [Example 44, N-(Hex-5-en-1-yl)-8,8-dimethyl-1-oxa-9-azaspiro[5.5]undecane-9-carboxamide] | 0.2 to 1 | 20.8 (≈ 6.42 µg/mL)
O=C(NCCc1ccccc1)N1CCCCC12CCCC2 [Example 45, N-Phenethyl-6-azaspiro[4.5]decane-6-carboxamide] | 0.2 to 1 | 6 (≈ 1.72 µg/mL)
O=C(NCCc1ccccc1)N1CCCCC12CCC2 [Example 46, N-Phenethyl-5-azaspiro 3.5 nonane-5-carboxamide] | > 1 | 17.5 (≈ 4.77 µg/mL)
CC1(C)CCc2c(C#N)cccc2N1C(=O)NCCc1ccccc1 [Example 47, 5-cyano-2,2-dimethyl-N-phenethyl-3,4-dihydroquinoline-1(2H)-carboxamide] | 0.2 to 1 | 1.7 (≈ 0.567 µg/mL)
CN1CC(c2ccc3c(c2)N(C(=O)NCCc2ccccc2)C(C)(C)CC3)C1 [Example 50] | < 0.2 | 32.2 (≈ 12.2 µg/mL)
CC1(C)CCc2ccc(C3COC3)cc2N1C(=O)NCCc1ccccc1 [Example 52] | 0.2 to 1 | 5 (≈ 1.82 µg/mL)
CC1(C)COCCN1C(=O)NCCc1ccccc1 [Example 53, 3,3-Dimethyl-N-phenethylmorpholine-4-carboxamide] | > 1 | 25.6 (≈ 6.72 µg/mL)
CC1(C)CC(c2ccccc2)CCN1C(=O)NCCc1ccccc1 (stereo not drawn) [Example 55, 2,2-Dimethyl-N-phenethyl-4-phenylpipridine-1-carboxamide] | < 0.2 | 0.4 (≈ 0.135 µg/mL)
O=C(NCCCc1ccccc1)N1CCCCC12CCCC2 [Example 56, N-(3-Phenylpropyl)-6-azaspiro[4.5]decane-6-carboxamide] | < 0.2 | 4.9 (≈ 1.47 µg/mL)
O=C(NCCCc1ccccc1)N1CCCC12CCCC2 [Example 57, N-(3-Phenylpropyl)-1-azaspiro[4.4]nonane-1-carboxamide] | > 1 | 19.4 (≈ 5.56 µg/mL)
O=C(NCCCc1ccc(F)cc1)N1CCCCC12CCCC2 [Example 58, N-(3-(4-Fluorophenyl)propyl)-6-azaspiro[4.5]decane-6-carboxamide] | < 0.2 | 3 (≈ 0.955 µg/mL)
O=C(NCCCc1ccc(F)cc1F)N1CCCCC12CCCC2 [Example 59, N-(3-(2,4-difluorophenyl)propyl)-6-azaspiro[4.5]decane-6-carboxamide] | < 0.2 | 1.1 (≈ 0.37 µg/mL)
O=C(NCCCc1ccccc1)N1CCOCC12CCCC2 [Example 60, N-(3-Phenylpropyl)-9-oxa-6-azaspiro[4.5]decane-6-carboxamide] | > 1 | 25.2 (≈ 7.62 µg/mL)
CC1(C)CC(F)=CCN1C(=O)NCCCc1ccccc1 [Example 62, 4-fluoro-2,2-dimethyl-N-(3-phenylpropyl)-3,6-dihydropyridine-1(2H)-carboxamide] | > 1 | 15 (≈ 4.36 µg/mL)
CN(C(=O)NCCCc1ccccc1)C12CCC(CC1)CC2 [Example 63, 1-(Bicyclo[2.2.2]octan-1-yl)-1-methyl-3-(3-phenylpropyl)urea] | < 0.2 | 3.1 (≈ 0.931 µg/mL)
CN(C(=O)NCCCc1ccccc1)C1CN2CCC1CC2 (stereo not drawn) [Example 64, 1-Methyl-3-(3-phenylpropyl)-1-(quinuclidin-3-yl)urea] | > 1 | 35.4 (≈ 10.7 µg/mL)
CC(=O)N1CC(c2ccc3c(c2)N(C(=O)NCCc2ccccc2)C(C)(C)CC3)C1 [Example 70, 7-(1-Acetylazetidin-3-yl)-2,2-dimethyl-N-phenethyl-3,4-dihydroquinoline-1(2H)-carboxamide] | 0.2 to 1 | 15.6 (≈ 6.33 µg/mL)
CC1(C)CC(F)(F)CCN1C(=O)NCCCC1(C(F)(F)F)CC1 [Example 72, 4,4-Difluoro-2,2-dimethyl-N-(3-(1-(trifluoromethyl)cyclopropyl)propyl)piperidine-1-carboxamide] | 0.2 to 1 | 21.4 (≈ 7.33 µg/mL)
CC1(C)CC(F)=CCN1C(=O)NCCCC1(C(F)(F)F)CC1 [Example 73, 4-fluoro-2,2-Dimethyl-N-(3-(1-(trifluoromethyl)cyclopropyl)propyl)-3,6-dihydropyridine-1(2H)-carboxamide] | > 1 | 4.3 (≈ 1.39 µg/mL)
CC1(C)CC(c2ccccc2)CCN1C(=O)NCCCCc1ccccc1 (stereo not drawn) [Example 74, 2,2-Dimethyl-4-phenyl-N-(4-phenylbutyl)piperidine-1-carboxamide] | < 0.2 | 0.2 (≈ 0.0729 µg/mL)
CC1(C)CC(c2ccccc2)CCN1C(=O)NCCOCc1ccccc1 (stereo not drawn) [Example 75, N-(2-Benzyloxyethyl)-2,2-dimethyl-4-phenylpiperidine-1-carboxamide] | > 1 | 7.1 (≈ 2.6 µg/mL)
CCOCCNC(=O)N1CCC(c2ccccc2)CC1(C)C (stereo not drawn) [Example 77, N-(2-Ethoxyethyl)-2,2-dimethyl-4-phenylpiperidine-1-carboxamide] | > 1 | 64.3 (≈ 19.6 µg/mL)
CC1(C)CC(c2ccccn2)CCN1C(=O)NCCCCc1ccccc1 (stereo not drawn) [Example 79, 2,2-Dimethyl-N-(4-phenylbutyl)-4-(2-pyridyl)piperidine-1-carboxamide] | > 1 | 6.4 (≈ 2.34 µg/mL)
